From US12251449B2, “Synthetic multidomain peptide biomaterials that inhibit inducible nitric oxide synthase” (William Marsh Rice University, priority 2019, dated 2025)
*1 amine or outer side, *2 acyl side, *3 side chain or, on linkers, in order; H or OH if unused. Where a SMILES comes first, the peptide text is derived from it. [ ]: non-standard residue; d: D form. X1 = CC(=N)NCCCC[C@H](N[*:1])C(=O)[*:2]

Assays:
iNOS = biological target: T1, iNOS (Mus musculus, UniProt P29477); experiment: iNOS knockdown in vitro Greiss assay; type: cell-based
T1 construct: endogenous in cells; host or cells: RAW 264.7 murine macrophages stimulated with LPS and IFN-gamma
T1 sequence (P29477 1-1144): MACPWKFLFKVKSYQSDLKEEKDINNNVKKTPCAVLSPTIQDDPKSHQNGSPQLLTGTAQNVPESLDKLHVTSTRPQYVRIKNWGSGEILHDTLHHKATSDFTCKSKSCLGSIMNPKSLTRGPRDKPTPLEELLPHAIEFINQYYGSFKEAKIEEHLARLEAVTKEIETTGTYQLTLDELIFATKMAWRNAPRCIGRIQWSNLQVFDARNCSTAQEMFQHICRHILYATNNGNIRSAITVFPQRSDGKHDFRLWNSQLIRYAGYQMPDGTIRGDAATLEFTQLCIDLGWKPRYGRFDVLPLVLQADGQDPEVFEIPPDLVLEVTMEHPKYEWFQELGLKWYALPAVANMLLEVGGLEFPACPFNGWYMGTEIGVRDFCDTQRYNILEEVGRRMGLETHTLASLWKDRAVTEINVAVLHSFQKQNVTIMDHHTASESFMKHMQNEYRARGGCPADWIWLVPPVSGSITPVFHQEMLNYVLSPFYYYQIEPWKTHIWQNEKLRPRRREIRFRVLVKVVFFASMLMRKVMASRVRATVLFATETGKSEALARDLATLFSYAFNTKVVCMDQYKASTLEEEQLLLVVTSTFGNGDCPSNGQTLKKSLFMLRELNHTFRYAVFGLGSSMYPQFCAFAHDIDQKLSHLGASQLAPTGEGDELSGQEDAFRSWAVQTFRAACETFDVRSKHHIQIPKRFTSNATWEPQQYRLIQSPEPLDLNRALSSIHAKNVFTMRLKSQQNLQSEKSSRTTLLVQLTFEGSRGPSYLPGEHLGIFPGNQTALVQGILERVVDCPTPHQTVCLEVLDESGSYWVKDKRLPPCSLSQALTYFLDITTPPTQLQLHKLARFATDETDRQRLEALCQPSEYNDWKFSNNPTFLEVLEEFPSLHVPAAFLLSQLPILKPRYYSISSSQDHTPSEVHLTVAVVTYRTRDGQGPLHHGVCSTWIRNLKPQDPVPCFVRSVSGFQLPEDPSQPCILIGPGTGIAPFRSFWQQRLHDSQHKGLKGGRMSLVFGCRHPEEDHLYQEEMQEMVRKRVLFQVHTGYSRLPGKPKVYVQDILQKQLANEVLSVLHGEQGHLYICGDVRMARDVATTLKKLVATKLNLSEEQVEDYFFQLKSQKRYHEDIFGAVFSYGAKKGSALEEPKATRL
Procedure: iNOS knockdown in vitro Greiss assay. To evaluate the iNOS knockdown efficacy of various materials, the following procedure was used to test % iNOS inhibition of RAW 264.7 cells stimulated with Lipopolysaccharide (LPS, Thermo Fisher Scientific, Rockford, IL) and recombinant mouse IFN-7 (Biolegend, San Diego, CA). RAW macrophages were prepared at a stock concentration of 2.5×10^6 cells/mL, and plated at 2.5×10^5 cells per well in 24-well plates. For samples testing the efficacy of 2-D surface cell culture, 200 μL of MDP hydrogels was applied to evenly coat the surface of each well before addition of cells. Each experimental condition was performed in triplicate. The following controls were included in every experiment, 1) media alone, 2) stimulated cells alone, and 3) unstimulated cells alone. To each well, stimulation media or normal media was then added based on experimental requirement. Stimulation media was prepared with LPS (final concentration 1 μg/mL) and IFN-7 (final concentration 100 U/mL). For samples testing material efficacy in solution (e.g. free L-NIL), after 6 hrs of incubation at 37° C. with 5% CO2 the desired concentration of inhibitor was added to achieve a range of concentrations between 1 μM and 1 mM.
In all cases after 24 hours from time of stimulation, samples of cell media were collected from each well after mixing media by pipetting before collection. Media samples were placed into a 96-well plate and centrifuged at 5000 rpm for 10 min. Supernatants were removed and placed in a new clear 96-well plate, and samples were immediately analyzed using a colorimetric Greiss Assay (Cayman Chemical, Ann Arbor, MI) to assess nitrite levels (Bryan & Grisham, 2007). Color was allowed to develop for 10 min following addition of Greiss reagents, and absorbance was read at 540 nm on a plate reader. Percent iNOS inhibition for each sample was calculated by first subtracting the absorbance of the media-only baseline, and then converting to a percent of maximum nitrite signal as determined by the internal standard of stimulated cells alone.

[1] = Subcutaneous hydrogel implants, histology (persistence, degradation, host response); type: in vivo, mice; details: 3-21 days
Procedure: Subcutaneous experiments and histology. C57BL/6J female mice were purchased from The Jackson Laboratory at age 8-12 weeks for subcutaneous characterization experiments. Mice were housed under specific pathogen-free conditions in standard temperature and lighting conditions with free access to food and water, and experiments were conducted with approval of the Institutional Animal Care and Use Committee (IACUC) at Rice University and according to NIH guidelines. Mice were injected with 100 μL MDP hydrogels in each of four separate sites in the subcutaneous space of the dorsal flank after the skin was shaved and sterilized with alcohol. At days 3, 7, 14, and 21 the mice were euthanized and the dorsal skin around the entire implant was removed, fixed overnight in 10% neutral buffered formalin, processed and paraffin embedded, and finally sectioned at […] thickness for staining using standard Masson's trichrome or hematoxylin and eosin (H&E) procedures, as well as immunohistochemical analyses (e.g., anti-nitrotyrosine IHC, or α-SMA blood vessel analysis).
Evaluation of material biocompatibility, degradation, and immune response profile in vivo was performed by histological analysis of hydrogel implants injected subcutaneously in healthy mice. […]

CC(=N)NCCCC[C@H](NC(=O)[C@H](CCCCNC(C)=N)NC(=O)[C@H](CC(C)C)NC(=O)[C@H](CO)NC(=O)[C@H](CC(C)C)NC(=O)[C@H](CO)NC(=O)[C@H](CC(C)C)NC(=O)[C@H](CO)NC(=O)[C@H](CC(C)C)NC(=O)[C@H](CO)NC(=O)[C@H](CC(C)C)NC(=O)[C@H](CO)NC(=O)[C@H](CC(C)C)NC(=O)[C@H](CO)NC(=O)[C@H](CCCCNC(C)=N)NC(=O)[C@H](CCCCNC(C)=N)NC(C)=O)C(N)=O [L-NIL-MDP] (Ac-[X1][X1]SLSLSLSLSLSL[X1][X1]-NH2)
free L-NIL concentration giving a comparable level of iNOS inhibition (iNOS; hydrogel surface culture compared with free L-NIL in solution): ~100 µM | iNOS inhibition (in words) (iNOS; stimulated RAW macrophages cultured on the hydrogel): greatest degree of iNOS inhibition | inflammatory reaction after injection (in words) [1]: does not cause a chronic inflammatory reaction
